Data from patent US12643910B2, “Substituted pyrazolo[3,4-b]pyridines as ectonucleotide pyrophosphatase/phosphodiesterase 1 (ENPP1) modulators” (SANFORD BURNHAM PREBYS MEDICAL DISCOVERY INSTITUTE, priority 2019, dated 2026).

How the values were obtained:
[1] = target: T1, human ENPP1 (Homo sapiens, UniProt P22413); experiment: ENPP1 assay with ATP substrate (Transcreener AMP2/GMP2 TR-FRET); assay type: biochemical; conditions: 1 hour at room temperature
T1 construct: made in house
T1 sequence (P22413 1-925): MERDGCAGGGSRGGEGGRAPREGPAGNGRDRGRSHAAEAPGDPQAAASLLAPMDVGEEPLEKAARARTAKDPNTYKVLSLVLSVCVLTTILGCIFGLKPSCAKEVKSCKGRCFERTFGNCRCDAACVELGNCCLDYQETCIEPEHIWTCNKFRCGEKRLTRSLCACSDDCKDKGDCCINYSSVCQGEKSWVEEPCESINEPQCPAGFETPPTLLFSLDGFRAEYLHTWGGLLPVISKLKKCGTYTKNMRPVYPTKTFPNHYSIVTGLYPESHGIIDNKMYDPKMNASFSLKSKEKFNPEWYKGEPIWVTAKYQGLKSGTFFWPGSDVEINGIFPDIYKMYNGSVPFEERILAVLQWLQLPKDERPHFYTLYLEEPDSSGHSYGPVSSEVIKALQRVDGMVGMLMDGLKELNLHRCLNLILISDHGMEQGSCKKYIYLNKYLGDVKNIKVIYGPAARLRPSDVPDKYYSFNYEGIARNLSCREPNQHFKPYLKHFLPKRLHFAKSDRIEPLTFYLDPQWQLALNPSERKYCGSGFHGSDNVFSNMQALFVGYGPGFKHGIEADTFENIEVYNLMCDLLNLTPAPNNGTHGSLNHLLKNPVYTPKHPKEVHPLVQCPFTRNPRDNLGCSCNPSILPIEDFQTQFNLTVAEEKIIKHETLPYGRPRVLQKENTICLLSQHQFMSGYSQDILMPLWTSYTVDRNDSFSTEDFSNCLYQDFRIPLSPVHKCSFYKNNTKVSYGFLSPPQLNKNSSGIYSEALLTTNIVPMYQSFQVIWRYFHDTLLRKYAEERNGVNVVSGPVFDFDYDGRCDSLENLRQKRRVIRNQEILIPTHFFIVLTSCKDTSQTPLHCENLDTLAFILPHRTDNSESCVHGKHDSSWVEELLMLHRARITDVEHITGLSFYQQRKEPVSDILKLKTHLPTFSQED
Procedure, shortened: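 Reaction ran 1 h at room temperature in pH 7.5 Tris with MgCl2, TCEP, Tween 20 and 1% DMSO. ATP was added as a 300 nM stock and enzyme as an 8.5 μM stock. After EDTA stop, AMP was read by TR-FRET tracer displacement. Percent inhibition used enzyme/no-enzyme controls; IC50 was fitted with a variable slope.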

[2] = target: T2, ENPP3 (Homo sapiens, UniProt O14638); experiment: ENPP3 Km ATP assay; assay type: biochemical; conditions: ATP at Km
T2 sequence (O14638 1-875): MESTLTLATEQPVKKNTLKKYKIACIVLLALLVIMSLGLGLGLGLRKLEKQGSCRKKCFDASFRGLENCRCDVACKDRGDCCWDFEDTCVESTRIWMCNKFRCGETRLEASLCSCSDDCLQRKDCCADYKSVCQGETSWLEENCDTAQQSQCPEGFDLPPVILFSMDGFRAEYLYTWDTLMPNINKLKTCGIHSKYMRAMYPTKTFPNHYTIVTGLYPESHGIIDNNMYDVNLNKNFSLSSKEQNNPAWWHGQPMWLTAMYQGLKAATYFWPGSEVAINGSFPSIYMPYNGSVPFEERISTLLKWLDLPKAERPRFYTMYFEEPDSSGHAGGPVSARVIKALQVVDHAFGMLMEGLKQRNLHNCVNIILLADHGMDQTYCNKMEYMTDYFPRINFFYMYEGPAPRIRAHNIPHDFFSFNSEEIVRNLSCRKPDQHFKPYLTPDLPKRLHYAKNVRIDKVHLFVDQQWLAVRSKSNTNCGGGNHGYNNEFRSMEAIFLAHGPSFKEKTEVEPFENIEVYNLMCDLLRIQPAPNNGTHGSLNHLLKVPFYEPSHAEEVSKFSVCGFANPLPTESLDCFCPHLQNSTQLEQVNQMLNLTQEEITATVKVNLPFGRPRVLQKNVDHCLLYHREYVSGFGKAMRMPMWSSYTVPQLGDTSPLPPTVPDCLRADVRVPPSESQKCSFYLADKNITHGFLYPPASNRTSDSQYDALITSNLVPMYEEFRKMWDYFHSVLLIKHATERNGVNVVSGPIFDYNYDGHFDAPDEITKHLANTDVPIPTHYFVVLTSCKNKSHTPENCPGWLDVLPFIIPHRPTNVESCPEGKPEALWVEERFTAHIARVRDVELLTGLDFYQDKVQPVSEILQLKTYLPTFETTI

Row | Structure (SMILES) | IC50 [1] [µM] | IC50 [2] [µM]
1 | Cn1nc(-c2ccccn2)c2c(NCc3ccc(S(N)(=O)=O)cc3)nc(Cl)nc21 [Example 2.124, 4-((6-Chloro-1-methyl-3-(2-pyridyl)-1H-pyrazolo[3,4-d]pyrimidin-4-yl)aminomethyl)benzenesulfonamide] | 0.1 to 1 | 0.1 to 1
2 | Cn1ncc2c(NCc3ccc(S(N)(=O)=O)cc3)nc(N)nc21 [Example 2.37, 4-(((6-Amino-1-methyl-1H-pyrazolo[3,4-d]pyrimidin-4-yl)amino)methyl)-benzenesulfonamide] | 0.1 to 1 | 0.1 to 1
3 | Cc1csc2c(N3CCC(NCCCc4ccncc4)CC3)nc(-c3ccccc3)nc12 [Example 3.61, 1-(7-Methyl-2-phenylthieno[3,2-d]pyrimidin-4-yl)-N-(3-(pyridin-4-yl)propyl)piperidin-4-amine] | > 20 | > 20
4 | c1ccc(-c2csc3nc(-c4ccccn4)nc(NCc4ccncc4)c23)cc1 [Example 1, 5-Phenyl-2-(pyridin-2-yl)-N-(pyridin-4-ylmethyl)thieno[2,3-d]pyrimidin-4-amine] | 0.1 to 1 | > 20
5 | CN(C)CCCNc1nc(NCc2ccc(S(N)(=O)=O)cc2)c2c(-c3ccccc3)csc2n1 [Example 1.59, 4-((2-(3-Dimethylaminopropyl)amino-5-phenylthieno[2,3-d]pyrimidin-4-yl)aminomethyl)-benzenesulfonamide] | < 0.1 | < 0.1
6 | COc1cc(CNc2nc(-c3ccccn3)nc3scc(-c4ccccc4)c23)ccc1S(N)(=O)=O [Example 1.16, 2-Methoxy-4-(((5-phenyl-2-(pyridin-2-yl)thieno[2,3-d]pyrimidin-4-yl)amino)methyl)benzenesulfonamide] | 0.1 to 1 | 1 to 20
7 | Cn1ncc2c(NCc3ccc(S(N)(=O)=O)cc3)nc(NCc3ccccc3)nc21 [Example 2.48, 4-(((6-(Benzylamino)-1-methyl-1H-pyrazolo[3,4-d]pyrimidin-4-yl)amino)methyl)-benzenesulfonamide] | 0.1 to 1 | 0.1 to 1
8 | Cn1ncc2c(NCc3ccc(S(N)(=O)=O)cc3)ncnc21 [Example 2.25, 4-(((1-Methyl-1H-pyrazolo[3,4-d]pyrimidin-4-yl)amino)methyl)benzenesulfonamide] | < 0.1 | 1 to 20
9 | Cc1nc(NCc2ccc(S(N)(=O)=O)cc2)c2c(C3=CCCC3)nn(C)c2n1 [Example 2.127, 4-((3-(1-Cyclopenten-1-yl)-1,6-dimethyl-1H-pyrazolo[3,4-d]pyrimidin-4-yl)aminomethyl)benzenesulfonamide] | 1 to 20 | 0.1 to 1
10 | COc1ccc(CNc2nc(-c3ccccn3)nc3scc(-c4ccccc4)c23)cc1 [Example 1.3, N-(4-Methoxybenzyl)-5-phenyl-2-(pyridin-2-yl)thieno[2,3-d]pyrimidin-4-amine] | > 20 | > 20
11 | Cc1csc2c(N3CCC(NC(=O)CCc4cccc(F)c4)CC3)ncnc12 [Example 3.39, 3-(3-Fluorophenyl)-N-(1-(7-methylthieno[3,2-d]pyrimidin-4-yl)piperidin-4-yl)propanamide] | > 20 | > 20
12 | Cn1ncc2c(NCc3ccc(S(N)(=O)=O)c(F)c3)ccnc21 [Example 2.67, 2-Fluoro-4-(((1-methyl-1H-pyrazolo[3,4-b]pyridin-4-yl)amino)methyl)benzenesulfonamide] | < 0.1 | 0.1 to 1
13 | Cn1ncc2c(NCc3ccc(S(N)(=O)=O)cc3F)ccnc21 [Example 2.64, 3-Fluoro-4-(((1-methyl-1H-pyrazolo[3,4-b]pyridin-4-yl)amino)methyl)benzenesulfonamide] | < 0.1 | 0.1 to 1
14 | COc1cc(S(N)(=O)=O)ccc1CNc1ncnc2c1cnn2C [Example 2.3, 3-Methoxy-4-(((1-methyl-1H-pyrazolo[3,4-d]pyrimidin-4-yl)amino)methyl)-benzenesulfonamide] | 0.1 to 1 | 1 to 20
15 | NS(=O)(=O)c1ccc(CNc2nc(NCCCO)nc3scc(-c4ccccc4)c23)cc1 [Example 1.51, 4-((2-(3-Hydroxypropyl)amino-5-phenylthieno[2,3-d]pyrimidin-4-yl)aminomethyl)-benzenesulfonamide] | < 0.1 | < 0.1
16 | Cc1nn(C)c2ncnc(NCc3ccc(S(N)(=O)=O)cc3)c12 [Example 2.45, 4-(((1,3-Dimethyl-1H-pyrazolo[3,4-d]pyrimidin-4-yl)amino)methyl)benzenesulfonamide] | 0.1 to 1 | 0.1 to 1
17 | Cc1ccc(CNc2nc(-c3ccccn3)nc3scc(-c4ccccc4)c23)o1 [Example 1.32, N-((5-methylfuran-2-yl)methyl)-5-phenyl-2-(pyridin-2-yl)thieno[2,3-d]pyrimidin-4-amine] | 1 to 20 | > 20
18 | COc1ccc(CCCNC2CCN(c3ncnc4c(C)csc34)CC2)cc1 [Example 3.32, N-(3-(4-Methoxyphenyl)propyl)-1-(7-methylthieno[3,2-d]pyrimidin-4-yl)piperidin-4-amine] | 0.1 to 1 | > 20
19 | COc1cc(CNc2ncnc3c2cnn3C)ccc1S(N)(=O)=O [Example 2.42, 2-Methoxy-4-(((1-methyl-1H-pyrazolo[34-d]pyrimidin-4-yl)amino)methyl)-benzenesulfonamide] | > 20 | > 20
20 | NS(=O)(=O)c1ccc(CNc2nc(NC3CCCCC3)nc3scc(-c4ccccc4)c23)cc1 [Example 1.40, 4-(((2-(Cyclohexylamino)-5-phenylthieno[2,3-d]pyrimidin-4-yl)amino)methyl)-benzenesulfonamide] | 0.1 to 1 | 1 to 20
21 | Cc1csc2c(N3CCC(Nc4ccncc4)CC3)ncnc12 [Example 3.24, N-(1-(7-Methylthieno[3,2-d]pyrimidin-4-yl)piperidin-4-yl)pyridin-4-amine] | 1 to 20 | > 20
22 | NS(=O)(=O)c1ccc(CNc2nc(-c3ccccc3)nc3scc(-c4ccccc4)c23)s1 [Example 1.27, 5-(((2,5-Diphenylthieno[2,3-d]pyrimidin-4-yl)amino)methyl)thiophene-2-sulfonamide] | 1 to 20 | > 20
23 | NS(=O)(=O)c1ccc(CNc2nc(-c3ccccn3)nc3scc(-c4ccccc4)c23)cc1 [Example 1.6, 4-(((5-Phenyl-2-(pyridin-2-yl)thieno[2,3-d]pyrimidin-4-yl)amino)methyl)benzenesulfonamide] | < 0.1 | < 0.1
24 | Cn1nc(-c2ccccc2)c2c(NCc3ccc(S(N)(=O)=O)cc3)nc(N3CCCCC3)nc21 [Example 2.132, 4-((1-Methyl-3-phenyl-6-piperidino-1H-pyrazolo[3,4-d]pyrimidin-4-yl)aminomethyl)benzenesulfonamide] | < 0.1 | 0.1 to 1
25 | Cc1nc(NCc2ccc(S(N)(=O)=O)cc2)c2c(-c3ccccc3)csc2n1 [Example 1.44, 4-(((2-Methyl-5-phenylthieno[2,3-d]pyrimidin-4-yl)amino)methyl)benzenesulfonamide] | < 0.1 | < 0.1
